Patent US5246830A, “Enzymatic process for the determination of β-lactam antibiotics” (Ucb Bioproducts, S.A., priority 1990, dated 1993)

Legend:
[1] = molecular target: T1, enzyme R39 (soluble D-alanyl-D-alanine carboxypeptidase produced by Actinomadura R39) (Actinomadura sp. R39, UniProt P39045); test: Enzymatic determination of penicillin G in 3 ml milk samples (Example 3); assay type: biochemical; conditions: for Coloration: 24 picomoles enzyme R39, 10 min + 5 min
T1 construct: added to milk or serum samples
Method: The process is the same as in Example 1, except that:
the samples contain 3 ml of milk (instead of 50 μl);
24 picomoles (instead of 1.5 picomole) of enzyme R39 dissolved in 150 μl of 0.5M Hepes buffer (pH=8.0) and 600 μl of an aqueous solution containing 100 mg/ml of D-alanine are added to each sample;
the first incubation lasts 10 minutes (instead of 4 minutes);
120 μl (instead of 5 μl) of the aqueous solution of [(N-benzoyl-D-alanyl)thio]-acetic acid and 120 μl of a phosphate buffer solution (pH=8.0) containing 5 mg/ml of 5,5'-dithiobis(2-nitrobenzoic) acid are then added, and
(§1) the second incubation lasts 5 minutes (instead of 1 minute).

[2] = molecular target: T1, enzyme R39 (soluble D-alanyl-D-alanine carboxypeptidase produced by Actinomadura R39); test: Enzymatic determination of penicillin G in milk with 0.4 picomole enzyme R39 (Example 2); assay type: biochemical; conditions: for Coloration: 0.4 picomole enzyme R39, 10 min + 5 min
Method: (§2) 1.5 picomole of enzyme R39, dissolved in 10 μl of 0.5M Hepes buffer (pH=8.0) containing 0.5M NaCl and 0.25M MgCl2, and 20 μl of an aqueous solution containing 50 mg/ml of D-alanine are added to each sample (control sample+samples containing penicillin G). In the blank sample, enzyme R39 dissolved in Hepes buffer is replaced by 10 μl of 0.5M Hepes buffer (pH=8.0), containing 0.5M NaCl and 0.25M MgCl2 (Hepes=4-hydroxyethyl-1-piperazineethanesulfonic acid). The mixture is incubated at 47° C. for 4 minutes.
(§3) Next, 5 μl of an aqueous solution containing 5 mg/ml [(N-benzoyl-D-alanyl)thio]-acetic acid and 10 μl of a phosphate buffer solution (pH=8.0; KH2 PO4 +K2 HPO4) containing 2 mg/ml of 5,5'-dithiobis(2-nitrobenzoic) acid are added and the mixture is incubated at 47° C. for 1 minute.
The process is exactly the same as in Example 1 except that:
0.4 picomole of enzyme R39 (instead of 1.5 picomole) is added to the samples;
the first incubation lasts 10 minutes (instead of 4 minutes) and
as §1

[3] = molecular target: T1, enzyme R39 (soluble D-alanyl-D-alanine carboxypeptidase produced by Actinomadura R39); test: Enzymatic determination of penicillin G in milk, substrate and reagent combined in a tablet (Example 8); assay type: biochemical; conditions: substrate + reagent as tablet
Method: The process is the same as in example 3. However, after the first incubation for a period of 10 minutes, a tablet is added which contains, 600 μg of [(N-benzoyl-D-alanyl)thio]-acetic acid and 600 μg of 5,5'-dithiobis(2-nitrobenzoic) acid.
This tablet has the following overall composition (in % by weight): […]

enzyme R39 = enzyme R39 (Actinomadura sp. R39, UniProt P39045); test: Stability of the enzyme R39-antibiotic complex; assay type: binding; conditions: at 37° C.
Method: the extraordinary stability of the said complex, because, once formed it only breaks down very slowly. By way of example, the half-life of the complex formed between enzyme R39 and penicillin G is about 70 hours at 37° C.; and […]

[4] = molecular target: T1, enzyme R39 (soluble D-alanyl-D-alanine carboxypeptidase produced by Actinomadura R39); test: Enzymatic determination of penicillin G in milk with various D-amino acids or glycine as activators (Example 5); assay type: biochemical
Method: The process is the same as in example 3, except that the aqueous solution containing 100 mg/ml of D-alanine (test I) is respectively replaced by an aqueous solution containing 100 mg/ml of D-phenylalanine (test II), of D-serine (test III), of D-histidine (test IV), of D-methionine (test V), of D-2-aminobutyric acid (test VI), or by an aqueous solution containing 200 mg/ml of glycine (test VII).

[5] = molecular target: T1, enzyme R39 (soluble D-alanyl-D-alanine carboxypeptidase produced by Actinomadura R39); test: Enzymatic determination of penicillin G in 50 μl milk samples, visual coloration (Example 1); assay type: biochemical; conditions: 1.5 picomole enzyme R39, 4 min + 1 min at 47° C.
Method: A series of 50 μl milk samples is prepared containing known concentrations of penicillin G, and two 50 μl milk samples free from penicillin G (blank and control).
as §2, §3
The colorations obtained in the various samples are then observed.

[6] = molecular target: T1, enzyme R39 (soluble D-alanyl-D-alanine carboxypeptidase produced by Actinomadura R39); test: Enzymatic determination of penicillin G in serum, spectrophotometer at 410 nm (Example 7); assay type: biochemical; parameters: Optical density (at 410 nm): scale not given here; conditions: for Optical density (at 410 nm): blank subtracted, supernatant diluted 10 times
Method: The procedure of example 3 is followed, but the 3 ml milk samples are replaced by 3 ml serum samples containing known concentrations of penicillin G.
Moreover, after the second incubation lasting 5 minutes, the samples are centrifuged and the supernatants are diluted 10 times with water.
Then, the optical density is measured with a spectrophotometer at 410 nm.
The values of the optical density mentioned in Table VII are obtained by subtracting the optical density value found for the blank sample from the optical density values found respectively for the control sample and for the other samples.

[7] = penicillin G 0.004 I.U./ml in 50 μl milk
[8] = penicillin G 0.008 I.U./ml in 50 μl milk

T1 sequence (P39045 50-515): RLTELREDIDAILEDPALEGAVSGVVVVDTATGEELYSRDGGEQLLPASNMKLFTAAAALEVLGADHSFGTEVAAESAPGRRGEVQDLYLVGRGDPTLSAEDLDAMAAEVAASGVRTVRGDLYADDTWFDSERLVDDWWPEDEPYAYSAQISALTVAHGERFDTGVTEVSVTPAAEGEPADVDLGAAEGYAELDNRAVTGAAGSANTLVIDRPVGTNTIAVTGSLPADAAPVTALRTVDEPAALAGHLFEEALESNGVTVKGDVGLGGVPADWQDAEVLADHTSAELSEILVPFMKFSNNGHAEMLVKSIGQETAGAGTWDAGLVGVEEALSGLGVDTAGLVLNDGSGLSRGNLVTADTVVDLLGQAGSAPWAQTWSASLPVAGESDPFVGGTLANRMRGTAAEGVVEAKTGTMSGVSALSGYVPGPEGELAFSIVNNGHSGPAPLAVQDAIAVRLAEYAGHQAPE
enzyme R39, sequence (P39045 50-515): as above

CC1(C)S[C@@H]2[C@H](NC(=O)Cc3ccccc3)C(=O)N2[C@H]1C(=O)O [penicillin G, benzyl penicillin (penicillin G)]
penicillin G concentration in milk detected visually in large sample volumes ([1]; 3 ml milk, in 15 minutes): 0.004 I.U. per ml
Coloration ([1]; penicillin G 0.002 I.U./ml in 3 ml milk): medium yellow
Coloration ([1]; penicillin G 0.003 I.U./ml in 3 ml milk): pale yellow
Coloration ([1]; penicillin G 0.004 I.U./ml in 3 ml milk): white
Coloration ([1]; penicillin G 0.006 I.U./ml in 3 ml milk): white
penicillin G concentration in milk detected by reference to a color chart ([2]; color chart, 15 minutes): 0.002 I.U./ml
Coloration ([2]; penicillin G 0.001 I.U./ml in 50 μl milk): intense yellow
Coloration ([2]; penicillin G 0.002 I.U./ml in 50 μl milk): medium yellow
Coloration ([2]; penicillin G 0.003 I.U./ml in 50 μl milk): pale yellow
Coloration [2, 7]: white
Coloration ([2]; penicillin G 0.005 I.U./ml in 50 μl milk): white
Coloration [2, 8]: white
Coloration ([2]; penicillin G 0.010 I.U./ml in 50 μl milk): white
Coloration ([3]; penicillin G 0.002 (in 1.U.ml) in 3 ml milk): medium yellow
Coloration ([3]; penicillin G 0.003 (in 1.U.ml) in 3 ml milk): pale yellow
Coloration ([3]; penicillin G 0.004 (in 1.U.ml) in 3 ml milk): white
Coloration ([3]; penicillin G 0.006 (in 1.U.ml) in 3 ml milk): white
half-life of the complex formed between enzyme R39 and the antibiotic (enzyme R39): about 70 hours
Coloration ([4]; penicillin G 0.003 I.U./ml in 3 ml milk, test I, activator D-alanine 100 mg/ml): pale yellow
Coloration ([4]; penicillin G 0.003 I.U./ml in 3 ml milk, test II, activator D-phenylalanine 100 mg/ml): pale yellow
Coloration ([4]; penicillin G 0.003 I.U./ml in 3 ml milk, test III, activator D-serine 100 mg/ml): pale yellow
Coloration ([4]; penicillin G 0.003 I.U./ml in 3 ml milk, test IV, activator D-histidine 100 mg/ml): pale yallow
Coloration ([4]; penicillin G 0.003 I.U./ml in 3 ml milk, test V, activator D-methionine 100 mg/ml): pale yellow
Coloration ([4]; penicillin G 0.003 I.U./ml in 3 ml milk, test VI, activator D-2-aminobutyric acid 100 mg/ml): pale yellow
Coloration ([4]; penicillin G 0.003 I.U./ml in 3 ml milk, test VII, activator glycine 200 mg/ml): pale yellow
Coloration ([4]; penicillin G 0.006 I.U./ml in 3 ml milk, test I, activator D-alanine 100 mg/ml): white
Coloration ([4]; penicillin G 0.006 I.U./ml in 3 ml milk, test II, activator D-phenylalanine 100 mg/ml): white
Coloration ([4]; penicillin G 0.006 I.U./ml in 3 ml milk, test III, activator D-serine 100 mg/ml): white
Coloration ([4]; penicillin G 0.006 I.U./ml in 3 ml milk, test IV, activator D-histidine 100 mg/ml): white
Coloration ([4]; penicillin G 0.006 I.U./ml in 3 ml milk, test V, activator D-methionine 100 mg/ml): white
Coloration ([4]; penicillin G 0.006 I.U./ml in 3 ml milk, test VI, activator D-2-aminobutyric acid 100 mg/ml): white
Coloration ([4]; penicillin G 0.006 I.U./ml in 3 ml milk, test VII, activator glycine 200 mg/ml): white
Coloration [5, 7]: intense yellow
Coloration [5, 8]: medium yellow
Coloration ([5]; penicillin G 0.012 I.U./ml in 50 μl milk): pale yellow
Coloration ([5]; penicillin G 0.016 I.U./ml in 50 μl milk): white
Coloration ([5]; penicillin G 0.020 I.U./ml in 50 μl milk): white
Coloration ([5]; penicillin G 0.025 I.U./ml in 50 μl milk): white
Optical density (at 410 nm) ([6]; penicillin G 0.002 I.U./ml in 3 ml serum): 226
Optical density (at 410 nm) ([6]; penicillin G 0.003 I.U./ml in 3 ml serum): 175
Optical density (at 410 nm) ([6]; penicillin G 0.004 I.U./ml in 3 ml serum): 49
Optical density (at 410 nm) ([6]; penicillin G 0.006 I.U./ml in 3 ml serum): 15
penicillin G concentration determined quantitatively with a spectrophotometer ([6]; serum): 0.002 I.U./ml
